Legend:
[1] = system: Bacillus coagulans (NBRC 12583); test: Germination induction, change of turbidity (630 nm) of spore suspension; assay type: cell-based; conditions: 300 ppm; for turbidity (630 nm): 37° C., 150 rpm; for germination confirmed by turbidity decrease: up to 180 min
Description: (§1) It is possible to determine whether spores have germinated, after measuring an OD 630 value (turbidity at 630 nm) of the liquid culture, based on decrease in the value (Literature: Microbiology, (1950), 4, 3, 330-338). Briefly, bacterial cells after culturing are washed with distilled water and diluted with distilled water to OD 630=1.0, which is then mixed with an equal volume of a germination induction solution, and the turbidity at 630 nm is measured by a UV spectrophotometer at room temperature.
(§2) TS culture media (Difco, Trypticase Soy Broth) were inoculated respectively with 11 strains listed in Table 1 and cultured at 50° C. with respect to Geobacillus stearothermophilus NBRC13737 and Aeribacillus pallidus TK6004 (FERM BP-08597), and at 37° C. with respect to the other 9 strains, until respective colonies were established. Then with respect to each of 11 strains, a loop full of a single colony was scratched by a platinum loop and suspended in 500 μL of sterilized water. In 1000 g of water was dissolved 8.0 g of a nutrient agar culture medium (Difco, Nutrient Broth), followed by high pressure steam sterilization (121° C., 15 min) to prepare a plate medium. The nutrient agar culture medium was smeared with each 100 μL of the suspension and cultured at 37° C. for 3 days.
(§3) Then, bacterial cells were suspended using a platinum loop in 500 μL of sterilized water, and the bacterial suspension was subjected to a heat shock at 65° C. for 35 min. Each 100 μL of the heat-shocked bacterial suspension and a not-heat-shocked bacterial suspension were smeared on the TS culture media respectively and cultured at 50° C. or 37° C. for 1 day. As the results of the cultures, colony formation was confirmed also with respect to the heat-shocked bacterial suspensions, to confirm that spores were formed for all of 11 strains. Further, since the bacteria were not stained by Gram staining, it was reconfirmed that spores were formed.
(§4) After confirming the spore formation, the bacterial cells were collected by a bacteria spreader, suspended in 10 mL of sterilized distilled water, and then centrifuged (8340×g, 4° C., 15 min). The supernatant was removed and thereafter the bacterial cells were washed twice with 10 mL of sterilized water. After washing, the bacterial cells were suspended in 5 mL of sterilized water, and the suspension was filtrated by sterilized Kimwipes. The filtrate was centrifuged (8340×g, 4° C., 15 min) to remove the supernatant, and the rest was adjusted to the turbidity (at 630 nm) of 1.0 with sterilized water.
(§5) After dissolving with stirring using a stirring rod with a propeller, filtration sterilization (0.45 μm filter) was conducted to prepare each 600 ppm-solution.
(§6) Five hundred (500) μL of each solution and 500 μL of each bacterial spore suspension were mixed. […] Defining the time point of mixing as the reaction initiation (0 min), and continuing shaking (150 rpm) at 37° C., the turbidity (630 nm) was measured at 10, 20, 30, 40, 50, 60, 90, 120, and 180 min after the reaction initiation.
(§7) Since the turbidity at 630 nm decreases by germination of spores, it has been known that the turbidity at 630 nm can be used to determine the germination rate.

[2] = system: Geobacillus stearothermophilus (NBRC 13737); test: as above; assay type: cell-based; conditions: 300 ppm; for turbidity (630 nm): 37° C., 150 rpm; for germination confirmed by turbidity decrease: up to 180 min
Description: as §1, §2, §3, §4, §5, §6, §7

[3] = system: Bacillus subtilis sp spizizenii (NBRC 101239); test: as above; assay type: cell-based; conditions: 300 ppm; for turbidity (630 nm): 37° C., 150 rpm
Description: as §1, §2, §3, §4, §5, §6, §7

[4] = system: Bacillus amyloliquefaciens (NBRC 3022); test: as above; assay type: cell-based; conditions: 300 ppm; for turbidity (630 nm): 37° C., 150 rpm; for germination confirmed by turbidity decrease: up to 180 min
Description: as §1, §2, §3, §4, §5, §6, §7

[5] = system: C-3102 strain; test: Long time culture of spore suspension with inducer, turbidity up to 24 hours (proliferation check, Example 4); assay type: cell-based, Bacillus subtilis; conditions: 500 μL spore suspension + 500 μL of 600 ppm solution
Description: This Example is an experiment to examine whether proliferation is recognizable or not, when ferulic acid or vanillic acid is mixed with a spore suspension of the C-3102 strain and cultured for a long time period.
The C-3102 strain was cultured on a nutrient plate at 37° C. for 3 days, and thereafter bacterial cells were collected by a bacteria spreader and a spore suspension was prepared similarly as in Example 1 (OD 630=1.0). After mixing 500 μL of the C-3102 spore suspension with 500 μL of a 600 ppm-ferulic acid solution, or a 600 ppm-vanillic acid solution, change in the turbidity (630 nm) up to 24 hours was examined.

[6] = 0 min after reaction initiation
[7] = 10 min after reaction initiation
[8] = 20 min after reaction initiation
[9] = 30 min after reaction initiation
[10] = 40 min after reaction initiation
[11] = 50 min after reaction initiation
[12] = 60 min after reaction initiation
[13] = 90 min after reaction initiation
[14] = 120 min after reaction initiation
[15] = 180 min after reaction initiation

For `COc1cc(/C=C/C(=O)O)ccc1O` [Ferulic acid, ferulic acid], the “turbidity (630 nm)” value [1, 6] was 0.558, the “turbidity (630 nm)” value [1, 7] was 0.520 and the “turbidity (630 nm)” value [1, 8] was 0.518. The “turbidity (630 nm)” value [1, 9] was 0.510, the “turbidity (630 nm)” value [1, 10] was 0.460 and the “turbidity (630 nm)” value [1, 11] was 0.392. The “turbidity (630 nm)” value [1, 12] was 0.350, the “turbidity (630 nm)” value [1, 13] was 0.266 and the “turbidity (630 nm)” value [1, 14] was 0.217. For the same compound, the “turbidity (630 nm)” value [1, 15] was 0.198, the “germination confirmed by turbidity decrease” value [1] was “the turbidity decreased” and the “turbidity (630 nm)” value [2, 6] was 0.560. The “turbidity (630 nm)” value [2, 7] was 0.551, the “turbidity (630 nm)” value [2, 8] was 0.537 and the “turbidity (630 nm)” value [2, 9] was 0.541. For the same compound, the “turbidity (630 nm)” value [2, 10] was 0.489, the “turbidity (630 nm)” value [2, 11] was 0.473 and the “turbidity (630 nm)” value [2, 12] was 0.459. For the same compound, the “turbidity (630 nm)” value [2, 13] was 0.397, the “turbidity (630 nm)” value [2, 14] was 0.326 and the “turbidity (630 nm)” value [2, 15] was 0.202. For the same compound, the “germination confirmed by turbidity decrease” value [2] was “the turbidity decreased”, the “turbidity (630 nm)” value [3, 6] was 0.534 and the “turbidity (630 nm)” value [3, 7] was 0.512. For the same compound, the “turbidity (630 nm)” value [3, 8] was 0.495, the “turbidity (630 nm)” value [3, 9] was 0.471 and the “turbidity (630 nm)” value [3, 10] was 0.458. The “turbidity (630 nm)” value [3, 11] was 0.439, the “turbidity (630 nm)” value [3, 12] was 0.414 and the “turbidity (630 nm)” value [3, 13] was 0.362. The “turbidity (630 nm)” value [3, 14] was 0.306, the “turbidity (630 nm)” value [3, 15] was 0.224 and the “germination confirmed by turbidity decrease” value ([3]; up to 180 min) was “germination was confirmed”. The “turbidity (630 nm)” value [4, 6] was 0.522, the “turbidity (630 nm)” value [4, 7] was 0.447 and the “turbidity (630 nm)” value [4, 8] was 0.400. The “turbidity (630 nm)” value [4, 9] was 0.328, the “turbidity (630 nm)” value [4, 10] was 0.234 and the “turbidity (630 nm)” value [4, 11] was 0.192. The “turbidity (630 nm)” value [4, 12] was 0.133, the “turbidity (630 nm)” value [4, 13] was 0.094 and the “turbidity (630 nm)” value [4, 14] was 0.067. For the same compound, the “turbidity (630 nm)” value [4, 15] was 0.030, the “germination confirmed by turbidity decrease” value [4] was “the turbidity decreased” and the “turbidity (630 nm)” value ([5]; reaction time 0 hr) was 0.574. The “turbidity (630 nm)” value ([5]; reaction time 0.5 hr) was 0.543, the “turbidity (630 nm)” value ([5]; reaction time 1 hr) was 0.502 and the “turbidity (630 nm)” value ([5]; reaction time 1.5 hr) was 0.464. The “turbidity (630 nm)” value ([5]; reaction time 2 hr) was 0.425, the “turbidity (630 nm)” value ([5]; reaction time 3 hr) was 0.370 and the “turbidity (630 nm)” value ([5]; reaction time 24 hr) was 0.178.

`COc1cc(C(=O)O)ccc1O` [Vanillic acid, vanillic acid] was tested, and the “turbidity (630 nm)” value [1, 6] was 0.590, the “turbidity (630 nm)” value [1, 7] was 0.528 and the “turbidity (630 nm)” value [1, 8] was 0.490. For the same compound, the “turbidity (630 nm)” value [1, 9] was 0.430, the “turbidity (630 nm)” value [1, 10] was 0.390 and the “turbidity (630 nm)” value [1, 11] was 0.335. For the same compound, the “turbidity (630 nm)” value [1, 12] was 0.290, the “turbidity (630 nm)” value [1, 13] was 0.225 and the “turbidity (630 nm)” value [1, 14] was 0.180. The “turbidity (630 nm)” value [1, 15] was 0.137, the “germination confirmed by turbidity decrease” value [1] was “the turbidity decreased” and the “turbidity (630 nm)” value [2, 6] was 0.584. For the same compound, the “turbidity (630 nm)” value [2, 7] was 0.590, the “turbidity (630 nm)” value [2, 8] was 0.531 and the “turbidity (630 nm)” value [2, 9] was 0.510. The “turbidity (630 nm)” value [2, 10] was 0.467, the “turbidity (630 nm)” value [2, 11] was 0.445 and the “turbidity (630 nm)” value [2, 12] was 0.402. The “turbidity (630 nm)” value [2, 13] was 0.291, the “turbidity (630 nm)” value [2, 14] was 0.209 and the “turbidity (630 nm)” value [2, 15] was 0.099. The “germination confirmed by turbidity decrease” value [2] was “the turbidity decreased”, the “turbidity (630 nm)” value [3, 6] was 0.529 and the “turbidity (630 nm)” value [3, 7] was 0.520. The “turbidity (630 nm)” value [3, 8] was 0.516, the “turbidity (630 nm)” value [3, 9] was 0.512 and the “turbidity (630 nm)” value [3, 10] was 0.510. For the same compound, the “turbidity (630 nm)” value [3, 11] was 0.510, the “turbidity (630 nm)” value [3, 12] was 0.502 and the “turbidity (630 nm)” value [3, 13] was 0.488. For the same compound, the “turbidity (630 nm)” value [3, 14] was 0.479, the “turbidity (630 nm)” value [3, 15] was 0.474 and the “turbidity (630 nm)” value [4, 6] was 0.548. For the same compound, the “turbidity (630 nm)” value [4, 7] was 0.402, the “turbidity (630 nm)” value [4, 8] was 0.295 and the “turbidity (630 nm)” value [4, 9] was 0.221. The “turbidity (630 nm)” value [4, 10] was 0.150, the “turbidity (630 nm)” value [4, 11] was 0.100 and the “turbidity (630 nm)” value [4, 12] was 0.076. For the same compound, the “turbidity (630 nm)” value [4, 13] was 0.047, the “turbidity (630 nm)” value [4, 14] was 0.021 and the “turbidity (630 nm)” value [4, 15] was 0.018. For the same compound, the “germination confirmed by turbidity decrease” value [4] was “the turbidity decreased”, the “turbidity (630 nm)” value ([5]; reaction time 0 hr) was 0.575 and the “turbidity (630 nm)” value ([5]; reaction time 0.5 hr) was 0.540. For the same compound, the “turbidity (630 nm)” value ([5]; reaction time 1 hr) was 0.481, the “turbidity (630 nm)” value ([5]; reaction time 1.5 hr) was 0.426 and the “turbidity (630 nm)” value ([5]; reaction time 2 hr) was 0.380. For the same compound, the “turbidity (630 nm)” value ([5]; reaction time 3 hr) was 0.316 and the “turbidity (630 nm)” value ([5]; reaction time 24 hr) was 0.060.
